Experimental data reported in ChEMBL document CHEMBL2046310, “Synthesis and biological evaluation of novel 4β-(1,3,4-oxadiazole-2-amino)-podophyllotoxin derivatives” (Bioorg Med Chem Lett, 2012).
Active and inactive are the calls of the source. The rule behind the calls is not given here.

How the values were obtained:
SGC-7901 = assay: Cytotoxicity against human SGC7901 cells after 72 hrs by MTT assay; assay type: functional, cell-based; settings: SGC-7901, 72 h
A549 = assay: Cytotoxicity against human A549 cells after 72 hrs by MTT assay; assay type: functional, cell-based; settings: A549, 72 h
HepG2 [1] = assay: cells; settings: Homo sapiens, HepG2, 72 h
Description: (§1) Cytotoxicity against human HepG2 cells after 72 hrs by MTT assay

L929 = assay: Cytotoxicity against mouse L929 cells after 72 hrs by MTT assay; assay type: cell-based; settings: L929, 72 h
SH-SY5Y = assay: Cytotoxicity against human SH-SY5Y cells after 72 hrs by MTT assay; assay type: functional, cell-based
HeLa = assay: cells; settings: Homo sapiens, 72 h
Description: Cytotoxicity against human HeLa cells after 72 hrs by MTT assay

DU-145 = assay: Cytotoxicity against human DU145 cells after 72 hrs by MTT assay; assay type: functional, cell-based; settings: DU-145, 72 h
Vero = assay: Cytotoxicity against african green monkey Vero cells after 72 hrs by MTT assay; assay type: cell-based; settings: Chlorocebus sabaeus
HepG2 [2] = assay: Induction of apoptosis in human HepG2 cells assessed as early apoptotic cells at 2 uM after 48 hrs by annexinV/propidium iodide staining-based flow cytometric analysis (reference value: 0.47%); assay type: functional
HepG2 [3] = assay: Cell cycle arrest in human HepG2 cells assessed as accumulation at S phase after 48 hrs by propidium iodide staining-based flow cytometric analysis; assay type: functional
HepG2 [4] = settings: Homo sapiens
Description: as §1

HepG2 [5] = assay: Induction of apoptosis in human HepG2 cells assessed as appearance of apoptotic bodies at 0.25 to 2 uM after 48 hrs by Hoechst staining-based microscopic analysis; assay type: functional, cell-based
HepG2 [6] = assay: Induction of apoptosis in human HepG2 cells assessed as […] of nuclear fragment at 0.25 to 2 uM after 48 hrs by Hoechst staining-based microscopic analysis; assay type: functional, cell-based
HepG2 [7] = assay: Induction of apoptosis in human HepG2 cells assessed as early apoptotic cells at 1 uM after 48 hrs by annexinV/propidium iodide staining-based flow cytometric analysis (reference value: 0.47%); assay type: functional
HepG2 [8] = assay: Induction of apoptosis in human HepG2 cells assessed as late apoptotic to necrotic cells at 1 uM after 48 hrs by annexinV/propidium iodide staining-based flow cytometric analysis (reference value: 1.61%); assay type: functional
HepG2 [9] = assay: Induction of apoptosis in human HepG2 cells assessed as late apoptotic to necrotic cells at 0.25 uM after 48 hrs by annexinV/propidium iodide staining-based flow cytometric analysis (reference value: 1.61%); assay type: functional
HepG2 [10] = assay: Induction of apoptosis in human HepG2 cells assessed as late apoptotic to necrotic cells at 2 uM after 48 hrs by annexinV/propidium iodide staining-based flow cytometric analysis (reference value: 1.61%); assay type: functional
HepG2 [11] = assay: Inhibition of DNA topoisomerase 2alpha protein expression in human HepG2 cells at 0.5 to 1 uM after 48 hrs by Western blot analysis; assay type: functional, cell-based
HepG2 [12] = assay: Cell cycle arrest in human HepG2 cells assessed as accumulation at subG1 after 48 hrs by propidium iodide staining-based flow cytometric analysis; assay type: functional
HepG2 [13] = assay: Inhibition of DNA topoisomerase 2beta mRNA expression in human HepG2 cells at 0.5 to 8 uM after 6 hrs by RT-PCR analysis; assay type: functional, cell-based
HepG2 [14] = assay: Induction of apoptosis in human HepG2 cells assessed as early apoptotic cells at 0.25 uM after 48 hrs by annexinV/propidium iodide staining-based flow cytometric analysis (reference value: 0.47%); assay type: functional
HepG2 [15] = assay: Induction of apoptosis in human HepG2 cells assessed as late apoptotic to necrotic cells at 0.5 uM after 48 hrs by annexinV/propidium iodide staining-based flow cytometric analysis (reference value: 1.61%); assay type: functional
HepG2 [16] = assay: Cytotoxicity against human HepG2 cells by MTT assay; assay type: functional, cell-based; settings: TDE = time-dependent effect
HepG2 [17] = assay: Induction of apoptosis in human HepG2 cells assessed as early apoptotic cells at 0.5 uM after 48 hrs by annexinV/propidium iodide staining-based flow cytometric analysis (reference value: 0.47%); assay type: functional

`COc1cc([C@@H]2c3cc4c(cc3[C@@H](Nc3nnc(C)o3)[C@H]3COC(=O)[C@H]23)OCO4)cc(OC)c1O` showed an IC50 (SGC-7901; read-out: IC50) of 9.76 µM, an IC50 (A549) greater than 100 µM and an IC50 (HepG2 [1]) of 17.9 µM. The IC50 (L929) was 4.82 µM, the IC50 (SH-SY5Y) was 4.61 µM and the IC50 (HeLa) was 18.8 µM. The IC50 (DU-145) was 60.6 µM and the IC50 (Vero) was 46.1 µM.
Work on `COc1cc([C@@H]2c3cc4c(cc3[C@@H](Nc3nnc(-c5cccs5)o3)[C@H]3COC(=O)[C@H]23)OCO4)cc(OC)c1OC` yielded an IC50 (SGC-7901; read-out: IC50) of 56.6 µM, an IC50 (A549) greater than 100 µM and an IC50 (HepG2 [1]) of 38.8 µM. The IC50 (L929) was 70.9 µM, the IC50 (SH-SY5Y) was 20 µM and the IC50 (HeLa) was 42.5 µM. The IC50 (DU-145) was greater than 100 µM and the IC50 (Vero) was greater than 100 µM.
`COc1cc([C@@H]2c3cc4c(cc3[C@@H](Nc3nnc(-c5ccncc5)o3)[C@H]3COC(=O)[C@H]23)OCO4)cc(OC)c1OC` showed an IC50 (SGC-7901; read-out: IC50) greater than 100 µM, an IC50 (A549) greater than 100 µM and an IC50 (HepG2 [1]) of 96.6 µM. It also gave an IC50 (L929) of 20.5 µM, an IC50 (SH-SY5Y) of 41.5 µM and an IC50 (HeLa) greater than 100 µM. For the same molecule, the IC50 (DU-145) was greater than 100 µM and the IC50 (Vero) was greater than 100 µM.
`O=c1[nH]cc(F)c(=O)[nH]1` [FLUOROURACIL] showed an IC50 (SGC-7901) of 14.5 µM, an IC50 (HepG2 [1]) of 32.2 µM and an IC50 (L929) of 1.38 µM. It also gave an IC50 (SH-SY5Y) of 1.09 µM, an IC50 (HeLa) of 16 µM and an IC50 (DU-145) of 12.3 µM. The IC50 (Vero) was greater than 100 µM.
With `COc1cc([C@@H]2c3cc4c(cc3[C@@H](Nc3nnc(-c5ccco5)o3)[C@H]3COC(=O)[C@H]23)OCO4)cc(OC)c1OC` the IC50 (A549) was 69.2 µM, the IC50 (HepG2 [1]) was 38.8 µM and the IC50 (L929) was greater than 100 µM. The IC50 (SH-SY5Y) was 29.5 µM, the IC50 (HeLa) was 58.9 µM and the IC50 (DU-145) was 35.4 µM. It also gave an IC50 (Vero) greater than 100 µM.
For `COc1cc([C@@H]2c3cc4c(cc3[C@@H](Nc3nnc(-c5ccc([N+](=O)[O-])cc5)o3)[C@H]3COC(=O)[C@H]23)OCO4)cc(OC)c1OC`, the IC50 (SGC-7901; read-out: IC50) was greater than 100 µM, the IC50 (HepG2 [1]) was greater than 100 µM and the IC50 (L929) was greater than 100 µM. The IC50 (SH-SY5Y) was 16.6 µM, the IC50 (HeLa) was greater than 100 µM and the IC50 (DU-145) was greater than 100 µM.
For `COc1cc([C@@H]2c3cc4c(cc3[C@@H](O[C@@H]3O[C@@H]5CO[C@@H](C)O[C@H]5[C@H](O)[C@H]3O)[C@H]3COC(=O)[C@H]23)OCO4)cc(OC)c1O` [ETOPOSIDE], the IC50 (SGC-7901; read-out: IC50) was 12.1 µM, the IC50 (A549) was 10.1 µM and the IC50 (HepG2 [1]) was 5.48 µM. For the same molecule, the IC50 (L929) was 1 µM, the IC50 (SH-SY5Y) was 5.37 µM and the IC50 (HeLa) was 96.3 µM. It also gave an IC50 (DU-145) of 64.3 µM and an IC50 (Vero) of 31.1 µM.
`COc1cc([C@@H]2c3cc4c(cc3[C@@H](Nc3nnco3)[C@H]3COC(=O)[C@H]23)OCO4)cc(OC)c1OC` showed an IC50 (SGC-7901; read-out: IC50) greater than 100 µM, an IC50 (A549) greater than 100 µM and an IC50 (HepG2 [1]) of 11.8 µM. For the same molecule, the IC50 (L929) was 43.3 µM, the IC50 (SH-SY5Y) was 25.8 µM and the IC50 (HeLa) was greater than 100 µM. It also gave an IC50 (DU-145) of 11.3 µM and an IC50 (Vero) of 15.4 µM.
In the case of `COc1cc([C@@H]2c3cc4c(cc3[C@@H](Nc3nnc(-c5ccccc5)o3)[C@H]3COC(=O)[C@H]23)OCO4)cc(OC)c1OC`, the IC50 (SGC-7901; read-out: IC50) is reported as greater than 100 µM, the IC50 (HepG2 [1]) is reported as 74.2 µM and the IC50 (L929) is reported as greater than 100 µM. The IC50 (SH-SY5Y) was 26.9 µM, the IC50 (HeLa) was 85.3 µM and the IC50 (DU-145) was greater than 100 µM. For the same molecule, the IC50 (Vero) was greater than 100 µM.
`COc1ccc(-c2nnc(N[C@@H]3c4cc5c(cc4[C@@H](c4cc(OC)c(OC)c(OC)c4)[C@H]4C(=O)OC[C@@H]43)OCO5)o2)cc1` gave an IC50 (SGC-7901; read-out: IC50) greater than 100 µM, an IC50 (A549) of 53.7 µM and an IC50 (HepG2 [1]) of 27.9 µM. The IC50 (L929) was 18.2 µM, the IC50 (SH-SY5Y) was 7.39 µM and the IC50 (HeLa) was 17.7 µM. The IC50 (DU-145) was 76.1 µM and the IC50 (Vero) was 7.43 µM.
In the case of `COc1cc([C@@H]2c3cc4c(cc3[C@@H](Nc3nnc(C)o3)[C@H]3COC(=O)[C@H]23)OCO4)cc(OC)c1OC`, the Activity (HepG2 [2]) is reported as 20.68%, the Activity (HepG2 [3]) is reported as “Dose-dependent effect” and the IC50 (SGC-7901; read-out: IC50) is reported as 38.1 µM. For the same molecule, the inhibition (HepG2 [4]) was “Dose-dependent effect”, the Activity (HepG2 [5]) was “Active” and the Activity (HepG2 [6]) was “Active”. It also gave an Activity (HepG2 [7]) of 8.03%, an Activity (HepG2 [8]) of 9.51% and an Activity (HepG2 [9]) of 1.31%. It also gave an IC50 (A549) greater than 100 µM, an IC50 (HepG2 [1]) of 1.51 µM and an IC50 (L929) of 19.6 µM. The IC50 (SH-SY5Y) was 14.7 µM, the Activity (HepG2 [10]) was 30.27% and the inhibition (HepG2 [11]) was “Active”. The Activity (HepG2 [12]) was “Dose-dependent effect”, the inhibition (HepG2 [13]) was “Active” and the Activity (HepG2 [14]) was 0.62%. The Activity (HepG2 [15]) was 2.77%, the IC50 (HeLa) was 2.68 µM and the inhibition (HepG2 [16]) was “tde”. The Activity (HepG2 [17]) was 1.45%, the IC50 (DU-145) was greater than 100 µM and the IC50 (Vero) was 5.49 µM.
In the case of `COc1cc([C@@H]2c3cc4c(cc3[C@@H](Nc3nnc(-c5cccnc5)o3)[C@H]3COC(=O)[C@H]23)OCO4)cc(OC)c1OC`, the IC50 (SGC-7901; read-out: IC50) is reported as greater than 100 µM, the IC50 (A549) is reported as greater than 100 µM and the IC50 (HepG2 [1]) is reported as 72.8 µM. It also gave an IC50 (L929) of 54.6 µM, an IC50 (SH-SY5Y) of 22.5 µM and an IC50 (HeLa) greater than 100 µM. The IC50 (DU-145) was greater than 100 µM and the IC50 (Vero) was greater than 100 µM.
For `COc1cc([C@@H]2c3cc4c(cc3[C@H](O)[C@H]3COC(=O)[C@H]23)OCO4)cc(OC)c1OC` [PODOFILOX], the IC50 (SGC-7901; read-out: IC50) was 2.95 µM, the IC50 (A549) was 13.6 µM and the IC50 (HepG2 [1]) was 2.27 µM. The IC50 (L929) was 1.37 µM, the IC50 (SH-SY5Y) was 2.54 µM and the IC50 (HeLa) was 7.58 µM. It also gave an IC50 (DU-145) greater than 100 µM and an IC50 (Vero) of 1.78 µM.
